Tested on: Chlamydia
Assay: Chronic inflammatory diseases of uterus and appendages, 250 mg i.m., 10 injections, with BAT (ofloxacin)
Format: in vivo, human

## CC1COc2c(N3CCN(C)CC3)c(F)cc3c(=O)c(C(=O)O)cn1c23 (stereo not drawn) [Basic antibacterial therapy, BAT, ofloxacin]
After treatment
  Alpha-interferon, produced by the peripheral blood leukocytes, induced in culture by the Newcastle disease virus, mean: 5.3 log2 IU/ml
  Amount of cytoplasmic granules in peripheral blood PNLs, mean: 10.2
  Gamma-interferon, produced by the peripheral blood leukocytes, induced in culture by staphylococcus enterotoxin A, mean: 4.7 log2 IU/ml
  Serum interferon, mean: 0.8 log2 IU/ml
Before treatment
  Alpha-interferon, produced by the peripheral blood leukocytes, induced in culture by the Newcastle disease virus, mean: 5.1 log2 IU/ml
  Amount of cytoplasmic granules in peripheral blood PNLs, mean: 8.5
  Gamma-interferon, produced by the peripheral blood leukocytes, induced in culture by staphylococcus enterotoxin A, mean: 4.7 log2 IU/ml
  Serum interferon, mean: 0.2 log2 IU/ml
PCR control
  Etiological recovery: 69%
